Measured values taken from US5714494A, “Xanthines in the 7th position with a benzyl acetic acid moiety” (Bayer Aktiengesellschaft, priority 1995, dated 1998).

System: ApoB-100-associated lipoproteins
Test: Inhibition of the release of ApoB-100-associated lipoproteins from HepG2 cells (immunoassay for human LDL)
Assay type: cell-based
Conditions: HepG2 cells; light absorption 450 nm vs solvent control
Method: The test for detecting inhibition of the release of ApoB-100-associated lipoproteins from liver cells was carried out in vitro using cultured liver cells, preferably using cells of the human line HepG2. These cells are grown under standard conditions in medium for the culture of eucaryotic cells, preferably in RPMI 1640 using 10% foetal calf serum. HepG2 cells synthesize and secrete into the culture supernatant ApoB-100-associated lipoprotein particles which in principle are synthesized in a similar manner to the VLDL and LDL particles which are to be found in the plasma.
These particles can be detected using an immunoassay for human LDL. This immunoassay is carried out using antibodies which have been induced in the rabbit against human LDL under standard conditions. The anti-LDL antibodies (rabbit anti-LDL-Ab) were purified by affinity chromatography on an immunosorbent using human LDL. These purified rabbit anti-LDL Ab are adsorbed on the surface of plastic. Expediently, this adsorption is carried out on the plastic surface of microtitre plates having 96 wells, preferably on MaxiSorp plates. If ApoB-100-associated particles are present in the supernatant of Hep-G2 cells, these can bind to the insolubilized rabbit anti-LDL Ab, and an immune complex is formed which is bound to the plastic surface. Unbound proteins are removed by washing. The immune complex located on the plastic surface is detected using monoclonal antibodies which have been induced against human LDL according to standard conditions and purified. These antibodies were conjugated with the enzyme peroxidase. Peroxidase converts the colourless substrate TMB into a coloured product in the presence of H2 O2. After acidification of the reaction mixture using H2 SO4, the specific light absorption at 450 mn is determined, which is a measure of the amount of ApoB-100-associated particles which have been secreted into the culture supernatant by the HepG2 cells.
The IC50 value indicates at which substance concentration the light absorption is inhibited by 50% in comparison with the control (solvent control without substance).

Compound	IC50
Cn1c(=O)c2c(nc(Cc3ccccc3)n2Cc2ccc(C(C(=O)N[C@@H](CO)c3ccccc3)C3CCCC3)cc2)n(C)c1=O (single isomer, unassigned) [Example 170]	16 nM
Cn1c(=O)c2c(nc(Cc3ccccc3Cl)n2Cc2ccc(C(C(=O)N[C@@H](CO)c3ccccc3)C3CCCC3)cc2)n(C)c1=O (single isomer, unassigned) [Example 190]	86 nM
Cn1c(=O)c2c(nc(Cc3cccc(Cl)c3)n2Cc2ccc(C(C(=O)N[C@@H](CO)c3ccccc3)C3CCCC3)cc2)n(C)c1=O (single isomer, unassigned) [Example 193]	62 nM
Cn1c(=O)c2c(nc(-c3cccs3)n2Cc2ccc(C(C(=O)N[C@@H](CO)c3ccccc3)C3CCCC3)cc2)n(C)c1=O (single isomer, unassigned) [Example 158]	2 nM
Cn1c(=O)c2c(nc(-c3ccsc3)n2Cc2ccc(C(C(=O)N[C@@H](CO)c3ccccc3)C3CCCC3)cc2)n(C)c1=O (single isomer, unassigned) [Example 155]	2 nM
Cc1ccc(Cc2nc3c(c(=O)n(C)c(=O)n3C)n2Cc2ccc(C(C(=O)N[C@@H](CO)c3ccccc3)C3CCCC3)cc2)cc1 (single isomer, unassigned) [Example 184]	24 nM
Cn1c(=O)c2c(ncn2Cc2ccc(C(C(=O)N[C@@H](CO)c3ccccc3)C3CCCC3)cc2)n(C)c1=O (single isomer, unassigned) [Example 115]	240 nM
Cn1c(=O)c2c(nc(Cc3ccc(F)cc3)n2Cc2ccc(C(C(=O)N[C@@H](CO)c3ccccc3)C3CCCC3)cc2)n(C)c1=O (single isomer, unassigned) [Example 196]	61 nM
COc1ccc(Cc2nc3c(c(=O)n(C)c(=O)n3C)n2Cc2ccc(C(C(=O)N[C@@H](CO)c3ccccc3)C3CCCC3)cc2)cc1 (single isomer, unassigned) [Example 203]	63 nM
Cc1cccc(Cc2nc3c(c(=O)n(C)c(=O)n3C)n2Cc2ccc(C(C(=O)N[C@@H](CO)c3ccccc3)C3CCCC3)cc2)c1 (single isomer, unassigned) [Example 181]	10 nM
Cn1c(=O)c2c(nc(Cc3cccc(Cl)c3)n2Cc2ccc(C(C(=O)N[C@@H](CO)c3ccccc3)C3CCCC3)cc2)n(C)c1=O (single isomer, unassigned) [Example 192]	8 nM
Cc1ccc(-c2nc3c(c(=O)n(C)c(=O)n3C)n2Cc2ccc(C(C(=O)N[C@@H](CO)c3ccccc3)C3CCCC3)cc2)cc1 (single isomer, unassigned) [Example 137]	124 nM
Cn1c(=O)c2c(nc(-c3ccsc3)n2Cc2ccc(C(C(=O)N[C@@H](CO)c3ccccc3)C3CCCC3)cc2)n(C)c1=O (single isomer, unassigned) [Example 156]	25 nM
Cn1c(=O)c2c(nc(Cc3ccccc3Cl)n2Cc2ccc(C(C(=O)N[C@@H](CO)c3ccccc3)C3CCCC3)cc2)n(C)c1=O (single isomer, unassigned) [Example 189]	31 nM
Cn1c(=O)c2c(nc(-c3cccs3)n2Cc2ccc(C(C(=O)N[C@@H](CO)c3ccccc3)C3CCCC3)cc2)n(C)c1=O (single isomer, unassigned) [Example 159]	25 nM
Cc1ccc(Cc2nc3c(c(=O)n(C)c(=O)n3C)n2Cc2ccc(C(C(=O)N[C@@H](CO)c3ccccc3)C3CCCC3)cc2)cc1 (single isomer, unassigned) [Example 183]	10 nM
COc1cccc(Cc2nc3c(c(=O)n(C)c(=O)n3C)n2Cc2ccc(C(C(=O)N[C@@H](CO)c3ccccc3)C3CCCC3)cc2)c1 (single isomer, unassigned) [Example 200]	24 nM
COc1ccc(Cc2nc3c(c(=O)n(C)c(=O)n3C)n2Cc2ccc(C(C(=O)N[C@@H](CO)c3ccccc3)C3CCCC3)cc2)cc1 (single isomer, unassigned) [Example 202]	9 nM

Same assay, conditions: Homo sapiens, HepG2, HepG2 cells; light absorption 450 nm vs solvent control

Compound	IC50
Cc1ccccc1-c1nc2c(c(=O)n(C)c(=O)n2C)n1Cc1ccc(C(C(=O)N[C@@H](CO)c2ccccc2)C2CCCC2)cc1 (stereo partly drawn) [Example 132]	743 nM
Cc1ccc(-c2nc3c(c(=O)n(C)c(=O)n3C)n2Cc2ccc(C(C(=O)N[C@@H](CO)c3ccccc3)C3CCCC3)cc2)s1 (stereo partly drawn) [Example 163]	131 nM
CCn1c(=O)c2c(nc(-c3ccc(C)cc3)n2Cc2ccc(C(C(=O)N[C@@H](CO)c3ccccc3)C3CCCC3)cc2)n(CC)c1=O (stereo partly drawn) [Example 218]	8 nM
Cn1c(=O)c2c(nc(Cc3ccccc3)n2Cc2ccc(C(C(=O)N[C@@H](CO)c3ccccc3)C3CCCCC3)cc2)n(C)c1=O (single isomer, unassigned) [Example 172]	1 nM
Cn1c(=O)c2c(nc(Cc3cccc(O)c3)n2Cc2ccc(C(C(=O)N[C@@H](CO)c3ccccc3)C3CCCC3)cc2)n(C)c1=O (stereo partly drawn) [Example 207]	40 nM
Cn1c(=O)c2c(nc(-c3cccs3)n2Cc2ccc(C(C(=O)N[C@@H](CO)c3ccccc3)C3CCCC3)cc2)n(C)c1=S (stereo partly drawn) [Example 225]	4 nM
Cn1c(=O)c2c(nc(Cc3ccccc3Cl)n2Cc2ccc(C(C(=O)N[C@@H](CO)c3ccccc3)C3CCCC3)cc2)n(C)c1=O (stereo partly drawn) [Example 188]	23 nM
Cn1c(=O)c2c(nc(Cc3ccccc3)n2Cc2ccc(C(C(=O)N[C@@H](CO)c3ccccc3)C3CCCC3)cc2)n(C)c1=O (stereo partly drawn) [Example 168]	16 nM
CCn1c(=O)c2c(nc(-c3ccccc3)n2Cc2ccc(C(C(=O)N[C@@H](CO)c3ccccc3)C3CCCC3)cc2)n(CC)c1=O (stereo partly drawn) [Example 217]	11 nM
Cn1c(=O)c2c(nc(Cc3ccc(F)cc3)n2Cc2ccc(C(C(=O)N[C@@H](CO)c3ccccc3)C3CCCC3)cc2)n(C)c1=O (stereo partly drawn) [Example 194]	8 nM
Cn1c(=O)c2c(nc(Cc3ccccc3)n2Cc2ccc(C(C(=O)N[C@@H](CO)c3ccccc3)C3CCCCC3)cc2)n(C)c1=O (stereo partly drawn) [Example 171]	2 nM
Cc1cccc(Cc2nc3c(c(=O)n(C)c(=O)n3C)n2Cc2ccc(C(C(=O)N[C@@H](CO)c3ccccc3)C3CCCC3)cc2)c1 (single isomer, unassigned) [Example 180]	5 nM
CCn1c(=O)c2c(ncn2Cc2ccc(C(C(=O)N[C@@H](CO)c3ccccc3)C3CCCC3)cc2)n(CC)c1=O (single isomer, unassigned) [Example 212]	8 nM
Cn1c(=O)c2c(ncn2Cc2ccc(C(C(=O)N[C@@H](CO)c3ccccc3)C3CCCC3)cc2)n(C)c1=O (stereo partly drawn) [Example 113]	58 nM
Cn1c(=O)c2c(nc(Cc3cccs3)n2Cc2ccc(C(C(=O)N[C@@H](CO)c3ccccc3)C3CCCC3)cc2)n(C)c1=O (stereo partly drawn) [Example 126]	41 nM
Cc1ccc(-c2nc3c(c(=O)n(C)c(=S)n3C)n2Cc2ccc(C(C(=O)N[C@@H](CO)c3ccccc3)C3CCCC3)cc2)cc1 (stereo partly drawn) [Example 226]	11 nM
Cn1c(=O)c2c(nc(C3CCCC3)n2Cc2ccc(C(C(=O)N[C@@H](CO)c3ccccc3)C3CCCC3)cc2)n(C)c1=O (stereo partly drawn) [Example 122]	48 nM
Cc1nc2c(c(=O)n(C)c(=S)n2C)n1Cc1ccc(C(C(=O)N[C@@H](CO)c2ccccc2)C2CCCC2)cc1 (stereo partly drawn) [Example 223]	4 nM
CCc1nc2c(c(=O)n(C)c(=S)n2C)n1Cc1ccc(C(C(=O)N[C@@H](CO)c2ccccc2)C2CCCC2)cc1 (stereo partly drawn) [Example 224]	4 nM
COc1cccc(Cc2nc3c(c(=O)n(C)c(=O)n3C)n2Cc2ccc(C(C(=O)N[C@@H](CO)c3ccccc3)C3CCCC3)cc2)c1 (stereo partly drawn) [Example 198]	5 nM
CCn1c(=O)c2c(nc(-c3cccs3)n2Cc2ccc(C(C(=O)N[C@@H](CO)c3ccccc3)C3CCCC3)cc2)n(CC)c1=O (stereo partly drawn) [Example 219]	5 nM
Cc1ccc(-c2nc3c(c(=O)n(C)c(=O)n3C)n2Cc2ccc(C(C(=O)N[C@@H](CO)c3ccccc3)C3CCCC3)cc2)c(C)c1 (stereo partly drawn) [Example 138]	403 nM
Cn1c(=O)c2c(nc(C3CC3)n2Cc2ccc(C(C(=O)N[C@@H](CO)c3ccccc3)C3CCCC3)cc2)n(C)c1=O (stereo partly drawn) [Example 121]	36 nM
CCn1c(=O)c2c(ncn2Cc2ccc(C(C(=O)N[C@@H](CO)c3ccccc3)C3CCCC3)cc2)n(CC)c1=O (stereo partly drawn) [Example 211]	9 nM
Cc1nc2c(c(=O)n(C)c(=O)n2C)n1Cc1ccc(C(C(=O)N[C@@H](CO)c2ccccc2)C2CCCC2)cc1 (stereo partly drawn) [Example 119]	11 nM
Cn1c(=O)c2c(nc(-c3ccc(-c4ccccc4)cc3)n2Cc2ccc(C(C(=O)N[C@@H](CO)c3ccccc3)C3CCCC3)cc2)n(C)c1=O (stereo partly drawn) [Example 139]	90 nM
Cn1c(=O)c2c(nc(-c3cccnc3)n2Cc2ccc(C(C(=O)N[C@@H](CO)c3ccccc3)C3CCCC3)cc2)n(C)c1=O (stereo partly drawn) [Example 152]	169 nM
CCn1c(=O)c2c(nc(C3CC3)n2Cc2ccc(C(C(=O)N[C@@H](CO)c3ccccc3)C3CCCC3)cc2)n(CC)c1=O (stereo partly drawn) [Example 216]	34 nM
Cn1c(=O)c2c(nc(-c3cc(Br)cs3)n2Cc2ccc(C(C(=O)N[C@@H](CO)c3ccccc3)C3CCCC3)cc2)n(C)c1=O (stereo partly drawn) [Example 164]	12 nM
Cn1c(=O)c2c(nc(Cc3ccc(-c4ccccc4)cc3)n2Cc2ccc(C(C(=O)N[C@@H](CO)c3ccccc3)C3CCCC3)cc2)n(C)c1=O (stereo partly drawn) [Example 185]	29 nM
